Assay [1] concerns the target Human α2δ-1 subunit of Cav2.2 calcium channel (Homo sapiens, UniProt P54289). Nature of the assay: Binding assay to human α2δ-1 subunit of Cav2.2 calcium channel, [3H]-Gabapentin. To be noted: human α2δ-1 enriched membranes, 15 nM [3H]-Gabapentin; read-out: Ki (nM) alpha2delta Hum. Here is the method:
Binding Assay to Human α2δ-1 Subunit of Cav2.2 Calcium Channel.
Human α2δ-1 enriched membranes (2.5 μg) were incubated with 15 nM of radiolabeled [3H]-Gabapentin in assay buffer containing Hepes-KOH 10 mM, pH 7.4.
NSB (non specific binding) was measured by adding 10 μM pregabalin. After 60 min incubation at 27° C., binding reaction was terminated by filtering through Multiscreen GF/C (Millipore) presoaked in 0.5% polyethyleneimine in Vacuum Manifold Station, followed by 3 washes with ice-cold filtration buffer containing 50 mM Tris-HCl, pH 7.4.
Filter plates were dried at 60° C. for 1 hour and 30 μl of scintillation cocktail were added to each well before radioactivity reading.
Readings were performed in a Trilux 1450 Microbeta radioactive counter (Perkin Elmer).

Assay [2] has as its target Human norepinephrine transporter (NET) (Homo sapiens, UniProt P23975). Nature of the assay: Binding assay to human norepinephrine transporter (NET), [3H]-Nisoxetin. To be noted: human NET enriched membranes, 5 nM [3H]-Nisoxetin; read-out: Ki (nM) NET Hum. How it is done: Binding Assay to Human Norepinephrine Transporter (NET).
Human norepinephrine transporter (NET) enriched membranes (5 μg) were incubated with 5 nM of radiolabeled [3H]-Nisoxetin in assay buffer containing 50 mM Tris-HCl, 120 mM NaCl, 5 mM KCl, pH 7.4.
NSB (non specific binding) was measured by adding 1 μM. After 60 min incubation at 4° C., binding reaction was terminated by filtering through Multiscreen GF/C (Millipore) presoaked in 0.5% polyethyleneimine in Vacuum Manifold Station, followed by 3 washes with ice-cold filtration buffer containing 50 mM Tris-HCl, 0.9% NaCl, pH 7.4. Filter plates were dried at 60° C. for 1 hour and 30 μl of scintillation cocktail were added to each well before radioactivity reading.

Sequence of Human α2δ-1 subunit of Cav2.2 calcium channel (P54289 25-1103): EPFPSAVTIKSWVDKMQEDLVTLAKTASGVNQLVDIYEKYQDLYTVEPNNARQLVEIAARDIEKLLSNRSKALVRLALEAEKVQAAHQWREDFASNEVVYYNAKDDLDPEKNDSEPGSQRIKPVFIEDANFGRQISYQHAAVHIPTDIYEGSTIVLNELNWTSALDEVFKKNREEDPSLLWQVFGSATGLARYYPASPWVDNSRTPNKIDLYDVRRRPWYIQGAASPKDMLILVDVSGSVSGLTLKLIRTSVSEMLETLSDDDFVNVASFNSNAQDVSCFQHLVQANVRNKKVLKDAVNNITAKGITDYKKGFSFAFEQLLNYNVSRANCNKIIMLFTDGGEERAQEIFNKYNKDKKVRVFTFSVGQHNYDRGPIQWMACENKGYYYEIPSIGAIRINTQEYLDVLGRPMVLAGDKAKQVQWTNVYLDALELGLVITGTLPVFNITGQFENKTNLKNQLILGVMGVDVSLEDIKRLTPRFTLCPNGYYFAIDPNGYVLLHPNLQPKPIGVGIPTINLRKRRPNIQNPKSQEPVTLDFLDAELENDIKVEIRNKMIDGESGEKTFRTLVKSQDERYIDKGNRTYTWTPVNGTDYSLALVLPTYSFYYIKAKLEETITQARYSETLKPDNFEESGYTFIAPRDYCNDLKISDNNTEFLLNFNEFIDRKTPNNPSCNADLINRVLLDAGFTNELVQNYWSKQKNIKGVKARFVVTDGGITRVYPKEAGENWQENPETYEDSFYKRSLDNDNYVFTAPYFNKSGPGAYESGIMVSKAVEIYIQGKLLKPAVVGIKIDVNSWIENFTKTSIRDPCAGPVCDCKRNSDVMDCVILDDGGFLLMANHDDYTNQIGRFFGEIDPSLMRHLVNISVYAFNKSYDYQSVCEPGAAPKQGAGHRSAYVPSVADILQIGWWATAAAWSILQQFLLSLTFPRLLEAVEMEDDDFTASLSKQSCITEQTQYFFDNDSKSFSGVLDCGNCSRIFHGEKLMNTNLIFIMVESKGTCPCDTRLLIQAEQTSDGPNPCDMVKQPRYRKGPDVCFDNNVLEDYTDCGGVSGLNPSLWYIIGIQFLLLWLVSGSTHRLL
Sequence of Human norepinephrine transporter (NET) (P23975 whole entry): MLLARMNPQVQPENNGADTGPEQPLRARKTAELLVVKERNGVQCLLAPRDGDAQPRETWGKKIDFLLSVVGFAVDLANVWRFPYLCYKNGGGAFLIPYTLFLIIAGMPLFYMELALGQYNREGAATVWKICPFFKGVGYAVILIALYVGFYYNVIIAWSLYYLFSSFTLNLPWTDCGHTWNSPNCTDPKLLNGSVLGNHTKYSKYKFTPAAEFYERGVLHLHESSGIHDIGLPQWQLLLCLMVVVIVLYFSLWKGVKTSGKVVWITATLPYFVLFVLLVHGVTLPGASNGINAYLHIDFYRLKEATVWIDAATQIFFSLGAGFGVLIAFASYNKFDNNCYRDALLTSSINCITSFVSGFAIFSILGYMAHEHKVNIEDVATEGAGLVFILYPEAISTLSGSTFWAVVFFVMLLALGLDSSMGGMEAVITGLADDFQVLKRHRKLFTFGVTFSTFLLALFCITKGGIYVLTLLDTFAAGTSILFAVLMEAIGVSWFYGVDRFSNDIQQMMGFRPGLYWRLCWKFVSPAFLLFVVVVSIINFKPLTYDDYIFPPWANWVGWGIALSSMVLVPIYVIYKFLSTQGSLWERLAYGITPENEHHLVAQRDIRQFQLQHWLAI

As for `CNCCC(c1cccs1)N1CCc2c(F)cc(F)cc21` (centres unmarked) [Example 68, 3-(4,6-Difluoroindolin-1-yl)-N-methyl-3-(thiophen-2-yl)propan-1-amine], the Ki was 500 to 3000 nM in assay [1] and under 100 nM in assay [2].

On to `CNCCC(c1cccs1)N1CCc2cc(C#N)ccc21` (centres unmarked) [Example 96, 1-(3-(Methylamino)-1-(thiophen-2-yl)propyl)indoline-5-carbonitrile], for which the Ki in assay [1] lay in the range of 500 to 3000 nM; in assay [2] it was 500 to 1000 nM. The matching figures for `CNCC[C@@H](c1ccsc1)N1CCc2ncc(C)cc21` [Example 102, (S)—N-methyl-3-(6-methyl-2,3-dihydro-1H-pyrrolo[3,2-b]pyridin-1-yl)-3-(thiophen-3-yl)propan-1-amine]: 500 to 3000 nM and over 1000 nM. The matching figures for `NCCC(c1cccs1)N1CCc2ncccc21` (centres unmarked) [Example 9, 3-(2,3-Dihydro-1H-pyrrolo[3,2-b]pyridin-1-yl)-3-(thiophen-2-yl)propan-1-amine]: at least 3000 nM and over 1000 nM.

For `CNCC[C@@H](c1ccc(C)s1)N1CCc2ncccc21` [Example 45, (S)-3-(2,3-Dihydro-1H-pyrrolo[3,2-b]pyridin-1-yl)-N-methyl-3-(5-methylthiophen-2-yl)propan-1-amine], the Ki is 500 to 3000 nM in assay [1] and over 1000 nM in assay [2]. In the case of `CNCC[C@H](c1cccs1)N1CC(C)(C)c2nc(OC)ccc21` [Example 114, (R)-3-(5-methoxy-3,3-dimethyl-2,3-dihydro-1H-pyrrolo[3,2-b]pyridin-1-yl)-N-methyl-3-(thiophen-2-yl)propan-1-amine], the Ki in assay [1] was 100 to 500 nM; in assay [2], over 1000 nM. On to `CNCC[C@@H](c1cccs1)N1CC(C)(C)c2nc(C)ccc21` [Example 35, (S)-N-methyl-3-(thiophen-2-yl)-3-(3,3,5-trimethyl-2,3-dihydro-1H-pyrrolo[3,2-b]pyridin-1-yl)propan-1-amine], for which the figures for the Ki in assay [1] and in assay [2] were 100 to 500 nM and under 100 nM, respectively. `CNCC[C@H](c1cccc(F)c1)N1CCc2ncccc21` [Example 83, (R)-3-(2,3-Dihydro-1H-pyrrolo[3,2-b]pyridin-1-yl)-3-(3-fluorophenyl)-N-methylpropan-1-amine]: the figures for the Ki in assay [1] and in assay [2] were at least 3000 nM and 100 to 500 nM, respectively.

On to `CNCC[C@H](c1ccsc1)N1CC(C)(C)c2ncc(F)cc21` [Example 87, (R)-3-(6-Fluoro-3,3-dimethyl-2,3-dihydro-1H-pyrrolo[3,2-b]pyridin-1-yl)-N-methyl-3-(thiophen-3-yl)propan-1-amine], for which the Ki in assay [1] is 100 to 500 nM; in assay [2], over 1000 nM. For the compound `CNCCC(c1cccs1)N1CC(C)(C)c2c(C#N)cccc21` (centres unmarked) [Example 100, 3,3-Dimethyl-1-(3-(methylamino)-1-(thiophen-2-yl)propyl)indoline-4-carbonitrile], the Ki was under 100 nM in assay [1] and over 1000 nM in assay [2]. Consider `CNCCC(c1cccs1)N1CCc2cc(F)ccc21` (centres unmarked) [Example 72, 3-(5-Fluoroindolin-1-yl)-N-methyl-3-(thiophen-2-yl)propan-1-amine], for which the Ki in assay [1] was at least 3000 nM; in assay [2], 100 to 500 nM. Taken in the same sequence, the figures for `CNCC[C@@H](c1ccsc1)N1CC(C)(C)c2ncccc21` [Example 25, (S)-3-(3,3-Dimethyl-2,3-dihydro-1H-pyrrolo[3,2-b]pyridin-1-yl)-N-methyl-3-(thiophen-3-yl)propan-1-amine] were 500 to 3000 nM and 100 to 500 nM. Taken in the same sequence, the figures for `CCNCCC(c1cccs1)N1CCc2ncccc21` (centres unmarked) [Example 8, 3-(2,3-Dihydro-1H-pyrrolo[3,2-b]pyridin-1-yl)-N-ethyl-3-(thiophen-2-yl)propan-1-amine] were 100 to 500 nM and over 1000 nM. Taken in the same sequence, the figures for `CNCC[C@@H](c1ccsc1)N1CCc2ncc(F)cc21` [Example 29, (S)-3-(6-Fluoro-2,3-dihydro-1H-pyrrolo[3,2-b]pyridin-1-yl)-N-methyl-3-(thiophen-3-yl)propan-1-amine] were 100 to 500 nM and 500 to 1000 nM. Turning to `CNCC[C@H](c1nccs1)N1CCc2ncccc21` [Example 54, (R)-3-(2,3-Dihydro-1H-pyrrolo[3,2-b]pyridin-1-yl)-N-methyl-3-(thiazol-2-yl)propan-1-amine], the Ki in assay [1] was at least 3000 nM; in assay [2], over 1000 nM. Turning to `CNCC[C@H](c1cccs1)N1CCc2ncccc21` [Example 17, (R)-3-(2,3-dihydro-1H-pyrrolo[3,2-b]pyridin-1-yl)-N-methyl-3-(thiophen-2-yl)propan-1-amine], the Ki in assay [1] lay within 500 to 3000 nM; in assay [2], 100 to 500 nM. The matching figures for `CNCCC(c1cccs1)N1CCc2ccncc21` (centres unmarked) [Example 2, 3-(2,3-Dihydro-1H-pyrrolo[2,3-c]pyridin-1-yl)-N-methyl-3-(thiophen-2-yl)propan-1-amine]: 500 to 3000 nM and over 1000 nM.

With `CNCC[C@@H](c1cccs1)N1c2ccccc2C[C@@H]1C` (racemic) [Example 119, (S/R)—N-methyl-3-((S/R)-2-methylindolin-1-yl)-3-(thiophen-2-yl)propan-1-amine], the Ki in assay [1] is at least 3000 nM; in assay [2], over 1000 nM.

As to `CCC1(CC)CN(C(CCNC)c2ccsc2)c2cccnc21` (racemic) [Example 86, 3-(3,3-Diethyl-2,3-dihydro-1H-pyrrolo[3,2-b]pyridin-1-yl)-N-methyl-3-(thiophen-3-yl)propan-1-amine], the figures for the Ki in assay [1] and in assay [2] were 500 to 3000 nM and over 1000 nM, respectively. Taken in the same sequence, the figures for `CNCC[C@@H](c1cccs1)N1CCc2ncc(OC)cc21` [Example 31, (S)-3-(6-Methoxy-2,3-dihydro-1H-pyrrolo[3,2-b]pyridin-1-yl)-N-methyl-3-(thiophen-2-yl)propan-1-amine] were at least 3000 nM and 500 to 1000 nM. Taken in the same sequence, the figures for `CNCC[C@H](c1cccs1)N1CC(C)(C)c2nc(C)ccc21` [Example 34, (R)-N-methyl-3-(thiophen-2-yl)-3-(3,3,5-trimethyl-2,3-dihydro-1H-pyrrolo[3,2-b]pyridin-1-yl)propan-1-amine] were under 100 nM and over 1000 nM. As for `CNCC[C@@H](c1ccc(Cl)s1)N1CCc2ncccc21` [Example 40, (S)-3-(5-Chlorothiophen-2-yl)-3-(2,3-dihydro-1H-pyrrolo[3,2-b]pyridin-1-yl)-N-methylpropan-1-amine], the figures for the Ki in assay [1] and in assay [2] were 100 to 500 nM and 500 to 1000 nM, respectively. `CNCC[C@@H](c1cccs1)N1CC(C)(C)c2ncc(C#N)cc21` [Example 115, (S)-3,3-Dimethyl-1-(3-(methylamino)-1-(thiophen-2-yl)propyl)-2,3-dihydro-1H-pyrrolo[3,2-b]pyridine-6-carbonitrile]: in assay [1], the Ki is under 100 nM.

For `CCNCCC(c1cccs1)N1CC(C)(C)c2ncc(C#N)cc21` (centres unmarked) [Example 101, 1-(3-(Ethylamino)-1-(thiophen-2-yl)propyl)-3,3-dimethyl-2,3-dihydro-1H-pyrrolo[3,2-b]pyridine-6-carbonitrile], the Ki in assay [1] is under 100 nM.

As for `CNCC[C@H](c1cccs1)N1CC(C)(C)c2ncc(C#N)cc21` [Example 116, (R)-3,3-dimethyl-1-(3-(methylamino)-1-(thiophen-2-yl)propyl)-2,3-dihydro-1H-pyrrolo[3,2-b]pyridine-6-carbonitrile], the Ki in assay [1] was 500 to 3000 nM.
